Each compound was assayed on female F344 rats (assay: Effect on bone density (femur, DXA) after oophorectomy or sham surgery). Conditions: at 3 mg/kg or less, orally once a day, six days a week, six weeks.
Format: in vivo
Experimental: Eight to 12 week old female F344 rats were purchased from Charles River Laboratories and used in the following experiment. Rats were anesthetized with an intraperitoneal administration of 40 mg/kg of Somnopentyl (Kyoritsu Seiyaku Corporation), and then oophorectomy or sham surgery was performed. From the day after surgery, a suspension of the test compound in a 0.5% methyl cellulose solution (Wako Pure Chemical Industries, Ltd. Cat. No. 133-14255) was orally administered once a day, six days a week. Six weeks after administration, the rats were euthanized by removal of whole blood from the lower abdominal aorta under Somnopentyl anesthesia, and the left and right femur was excised.
After removal of soft tissues, the bone density of the femur thus excised was measured by a DXA apparatus, DCS-600R (Aloka Co., Ltd.). The bone density was assessed in the whole femur as well as in three equal sections of the whole femur, namely the proximal end, the shaft, and the distal end.

| Compound | bone density of the femur |
| --- | --- |
| NC(=O)c1ccc2cncc(-c3ccc(OCCO)cc3)c2c1 [Example 36] | significantly increased the bone density |
| NC(=O)c1ccc2cncc(-c3ccc(Cl)cc3)c2c1 [Example 118] | significantly increased the bone density |
| Cn1ccc2cc(-c3cncc4ccc(C(N)=O)cc34)ccc21 [Example 33] | significantly increased the bone density |
| NC(=O)c1ccc2cncc(-c3ccc(OCCOC4CCOCC4)cc3)c2n1 [Example 9, 8-{4-[2-(Tetrahydro-2H-pyran-4-yloxy)ethoxy]phenyl}-1,6-naphthyridine-2-carboxamide] | significantly increased the bone density |
